In patent US10835513B2, “Methods and treatments for the learning and memory deficits associated with Noonan syndrome” (The Regents of the University of California, priority 2013, dated 2020):

System: Pyramidal neurons in CA1
Experiment: Whole-cell voltage clamp recordings (AMPA:NMDA ratio, mEPSC) in AAV-PTPN11^D61G-infected hippocampi
Assay type: cell-based, mice
Details: SL327 1 μM; for AMPA:NMDA current ratio: 1 hr
Description: FIG. 4 are graphs showing PTPN11^D61G overexpression enhances excitatory synaptic function through increased Ras-Erk signaling. Panel a) AMPA receptor-mediated currents were measured at the peak of the currents at −65 mV, and NMDA currents were measured 50 ms after onset at +40 mV. The average of 15 traces is shown. Scale, 100 pA and 40 ms. Panel b) Group data showing the increased AMPA:NMDA current ratio in AAV-PTPN11^D61G mice (1.51±0.11, n=10 cells from 5 mice) compared with AAV-GFP mice (0.96±0.05, n=10 cells from 5 mice, t-test, ***P<0.001). […] Two-way ANOVA, interaction between viral treatment and drug, F(1, 31)=10.53, **P<0.01. […] Panel c) Paired-pulse facilitation ratio is unaffected by PTPN11^D61G. There was no significant difference at 25 ms or 50 ms intervals between two groups (AAV-PTPN11^D61G, n=12 cells from 5 mice; AAV-GFP, n=11 cells from 5 mice). Repeated-measures ANOVA, F(1, 21)=0.010, P=0.921. Panel d) PTPN11^D61G overexpression increases excitatory synaptic function. mEPSC frequency was increased in AAV-PTPN11^D61G-infected mice compared with AAV-GFP mice, and was reversed by SL327 (1 μM) treatment without affecting on the AAV-GFP group. mEPSC frequency: GFP/Veh, 1.50±0.53, n=9; PTPN11^D61G/Veh, 4.64±0.94, n=9; GFP/SL327, 1.28±0.19, n=7; PTPN11^D61G/SL327, 2.02±0.32, n=9; Two-way ANOVA with viral treatment as between-subjects factor, F(1, 30)=10.31, **P<0.01. […] Two-way ANOVA with viral treatment as between-subjects factor, F(1, 30)=0.470, P=0.498. Scale, 20 pA and 200 ms. Panel e) Excitatory synaptic function is increased in Ptpn11^D61G/+ mice and reversed by SL327 treatment. mEPSC frequency was increased in Ptpn11^D61G/+ mice compared with WT littermates, and was reversed by SL327 (1 μM) treatment. mEPSC frequency: WT/Veh, 2.68±0.55, n=9; Ptpn11^D61G/+/Veh, 5.71±0.56, n=10; WT/SL327, 2.46±0.63, n=9; Ptpn11^D61G/+/SL327, 2.87±1.02, n=9; Two-way ANOVA with genotype as between-subjects factor, F(1, 33)=5.914, *P<0.05. […] Two-way ANOVA with genotype as between-subjects factor, F(1, 33)=0.418, P=0.839. Scale, 20 pA and 200 ms.
We examined the electrophysiological mechanism underlying the LTP impairment in AAV-PTPN11^D61G-infected mice. Increases in Ras signaling are known to facilitate AMPA receptor trafficking to the surface membrane^20. For example, expression of constitutively active Ras enhances AMPA receptor-mediated currents in hippocampal neurons and impairs LTP^20. […]
Whole-cell voltage clamp recordings were done with an Axopatch 200B amplifier (Axon Instrument) as previously described^29, 30. […] For mEPSC recordings, voltage clamp recordings were performed at −60 mV in the presence of 100 μM picrotoxin and 1 μM TTX. mIPSCs were measured at +10 mV in the presence of 1 mM kynurenic acid and 1 μM TTX. […]

N#C/C(=C(/N)Sc1ccc(N)cc1)c1ccccc1C(F)(F)F [SL327]
mEPSC frequency (AAV-GFP mice): 1.28±0.19 | mEPSC frequency (AAV-PTPN11^D61G-infected mice): 2.02±0.32 | AMPA:NMDA current ratio (GFP group): 1.08±0.07 | AMPA:NMDA current ratio (PTPN11^D61G group): 1.07±0.11
